Like-named read-outs stand apart in the source and are kept apart here.
How the values were obtained:
Type in all cases: binding, Tritirachium album limber
proteinase K (PK) [1] = target: T1, proteinase K (PK) (Parengyodontium album, UniProt P06873); assay: Site-tagged competition experiments with ibuprofen and cytisine; conditions: for Ksv of free PK: no site marker; for Ksv of PK–cytisine complex as % of that of free PK: site marker cytisine; for Ksv of PK–ibuprofen complex as % of that of free PK: site marker ibuprofen
T1 construct: It is a single-chain protein consisting of 279 amino acid residues and has a molecular weight of 28,930 Da; purchased Jiuding Chemicals (Shanghai, China)
From the text: To determine the binding site of PK, two typical ligands including ibuprofen and cytisine were chosen to perform competitive binding experiments. […] The site-labeling experiments were still performed using Equations (1) and (2) for correction and data analysis, respectively. […] It has been well known that neutral compounds such as ibuprofen and cytisine are likely to bind with proteins through hydrophobic interactions and hydrogen binding. […] This is consistent with the results obtained from the thermodynamic calculations.
For in site labeling competition experiments, an agent such as ibuprofen or cytisine of 3.46 μM was first mixed with PK. […] The excitation wavelengths for PK–ibuprofen and PK–cytisine were 265 and 280 nm, respectively. Fluorescence spectra were analyzed using the Stern–Volmer equation.

proteinase K (PK) [2] = target: T1, proteinase K (PK); assay: Förster resonance energy transfer (FRET) between PK (donor) and ligand (acceptor); conditions: 290 K; PK and ligand 3.46 μM
From the text: The distance and energy transfer between two chromophores, commonly known as the donor and the acceptor, may be computed by the Förster resonance energy transfer (FRET) theory. […] The energy transfer efficiency and binding distance were estimated according to Equation (6). (6) E=1−F/F0=RC^6/RC^6+r^6 where E is the energy transfer efficiency between the donor and the acceptor, r is the binding distance between the donor and the acceptor, and RC is the critical distance when the energy transfer efficiency is 50%, the value of which can be calculated using Equation (7). (7) RC^6=8.8×10^−25(K^2⋅Φ⋅n^−4⋅J) where K^2 is the spatial orientation factor associated with the geometry of the dipole donor and acceptor and generally takes the value of 2/3. Φ is the fluorescence quantum yield of the donor. The symbol n is the average refractive index of the medium and usually takes the value of 1.336 as the average value of water and organic matter. J is the spectral overlap integral between the fluorescence emission spectrum of the donor and the absorption spectrum of the acceptor, and the value is calculated by Equation (8). (8) J=∑(FD(λ)⋅ε(λ)⋅λ^4⋅Δλ)/∑(FD(λ)⋅Δλ) where FD(λ) is the corrected fluorescence intensity of the donor in the wavelength range, ε(λ) is the molar absorption constant of the acceptor at the wavelength, and ∆λ is the span of the wavelength. Following the FRET theory, the main factors affecting the energy transfer efficiency include the fluorescence production of the donor, the overlap of the fluorescence emission spectrum of the donor with the UV–Vis absorption spectrum of the acceptor, and the binding distance between the donor and the acceptor that must be within a specified range of 1 to 10 nm.
Förster resonance energy transfer (FRET) was tracked by overlapping PK emission spectrum (donor) with MYR or MYT absorption spectrum (acceptor). A concentration of 3.46 μM PK was chosen for the fluorescence emission spectroscopy measurements.

proteinase K (PK) [3] = target: T1, proteinase K (PK); assay: Synchronous fluorescence spectroscopy of PK with ligand; conditions: 300 K, ligand increased from 0.0 to 25.0 μM; for maximum emission wavelength of PK, synchronous fluorescence (Figure 6B,D): peak near 274 nm; for maximum emission wavelength of PK, synchronous fluorescence (Figure 6A / 6C): peak near 279 nm
Protocol: Synchronous fluorescence spectroscopy studies were performed to observe changes in the molecular environment of Tyr residues and Trp residues in the host structure, which are mainly responsible for fluorescence emission. Therefore, we used the characteristic information of Tyr and Trp residues, ∆λ = 15 nm and ∆λ = 60 nm, respectively, to probe the changes in the PK-MYR and PK-MYT complexes.
(§1) A Cary Eclipse fluorescence spectrometer (Varian, Palo Alto, CA, USA) was used to determine specific changes in the fluorescence emission of PK at different temperatures. All measurements were recorded at an excitation wavelength of 278 nm and the emission wavelength of 290–450 nm. The excitation and emission slits were adjusted to 5 nm. In synchronous fluorescence measurements, ∆λ was set to 60 and 15 nm.

proteinase K (PK) [4] = target: T1, proteinase K (PK); assay: Fluorescence quenching of proteinase K by MYR/MYT (Stern–Volmer, double-logarithmic and Van't Hoff analysis); conditions: for Stern–Volmer constant Ksv: 3.46 μM PK, pH 8.0; for Kd: double logarithmic equation, read-out: binding constant KA (converted); for fluorescence quenching rate constant Kq: τ0 1 × 10^−8 s; for enthalpy change ∆H: Van't Hoff equation, 290, 300, 310 K; for fluorescence quenching process (mechanism): from Kq versus 2 × 10^10 L·mol^−1·s^−1
From the text: Fluorescence spectroscopy is an effective method used to investigate conformational changes of proteins and binding parameters of ligands to fluorophore residues of proteins such as Trp, Tyr or Phe. PK contains two Trp residues (Trp8 and Trp212), which make it possible to emit fluorescence. […] The process by which this phenomenon occurs is called fluorescence quenching, which is the result of the altered microenvironment of PK. To eliminate the interference of fluorescence quenching from the inner filter effect, the experiments were corrected for fluorescence intensity using Equation (1). (1) Fcorr=Fobs×e^(Aex+Aem)/2 where Fcorr and Fobs are the fluorescence emission intensity values of the corrected and pre-corrected systems, respectively. Aex and Aem are the UV–Vis absorption intensities of quencher and PK at excitation and emission wavelengths, respectively.
To investigate the differences in the fluorescence quenching patterns of the PK-MYR and PK-MYT complexes, the Stern–Volmer equation (Equation (2)) was used for analysis.
Fluorescence quenching could be categorized into two processes, namely dynamic quenching and static quenching. Dynamic quenching occurs when the quencher collides with biological macromolecules, while static quenching is caused by the formation of complexes. For the dynamic process, the increase in Ksv along with the increase in temperature is expected, and the opposite is seen for the static quenching process. […] Consequently, we know that the combination of PK and MYR/MYT could form PK-MYR and PK-MYT complexes, leading to the static quenching mechanism.
Normally, the maximum collisional quenching constant Kq is about 2 × 10^10 L·mol^−1·s^−1 for small molecule quenchers and biomolecules.
The binding constants and the number of binding sites can be calculated by using a double logarithmic equation [20, 21] (Equation (3)). (3) log[(F0−F)/F]=logKA+nAlog[Q] where KA represents the binding constant between the biomolecule and the quencher, and nA implies the number of binding sites between the quencher and the fluorophor. […] It could be proposed that the binding constant of PK-MYT is larger than that of PK-MYR at the temperature of 290 K, and these two complexes share a similar binding site number n around one.
(4) lnKA=−ΔH/RΤ+ΔS/R (5) ΔG=−RTInKA=ΔH−TΔS where R is the molar gas constant with a general value of 8.314 J·mol^−1·K^−1. ∆H and ∆S are the enthalpy and entropy changes during the fluorescence quenching, respectively. The ∆G in Equation (5) is the Gibbs free energy change in the reaction. In general, the interaction between quenchers and fluorophors can be explained by four forces, including hydrogen bonding, van der Waals forces, electrostatic forces, and hydrophobic interactions. The sign and magnitude of ∆H and ∆S can be used to distinguish the binding forces and properties of the complexes. When ∆H and ∆S are positive, hydrophobic interactions dominate; when both ∆H and ∆S are negative, they can be explained as hydrogen bonding and van der Waals forces; when ∆H and ∆S are very low negative or positive values, there exist electrostatic interactions.
as §1

[5] = site marker cytisine 3.46 μM, room temperature, 1 h
[6] = site marker ibuprofen 3.46 μM, room temperature, 1 h

T1 sequence (P06873 106-384): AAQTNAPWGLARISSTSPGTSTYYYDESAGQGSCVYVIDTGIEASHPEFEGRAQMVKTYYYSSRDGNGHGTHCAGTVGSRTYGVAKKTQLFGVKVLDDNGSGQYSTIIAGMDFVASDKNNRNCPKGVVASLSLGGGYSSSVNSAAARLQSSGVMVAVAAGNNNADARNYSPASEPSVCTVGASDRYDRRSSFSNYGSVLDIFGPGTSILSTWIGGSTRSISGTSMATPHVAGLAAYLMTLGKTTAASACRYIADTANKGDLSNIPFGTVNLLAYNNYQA

Compound | Ksv of free PK (proteinase K (PK) [1]) [L/mol] | Ksv of PK–cytisine complex as % of that of free PK (proteinase K (PK) [1]) [%] | Stern–Volmer equation quenching constant KSV (proteinase K (PK) [1]; [5]) | Ksv of PK–ibuprofen complex as % of that of free PK (proteinase K (PK) [1]) [%] | Stern–Volmer equation quenching constant KSV (proteinase K (PK) [1]; [6]) | Stern–Volmer equation quenching constant KSV (proteinase K (PK) [1]; site marker: blank (free PK)) | critical distance RC (proteinase K (PK) [2]) [nm] | energy transfer efficiency E (proteinase K (PK) [2]) | maximum emission wavelength of PK, synchronous fluorescence (Figure 6B,D) (proteinase K (PK) [3]) | maximum emission wavelength of PK, synchronous fluorescence (Figure 6A / 6C) (proteinase K (PK) [3]) [nm] | Gibbs free energy change ∆G (proteinase K (PK) [4]; T 290 K) [kcal/mol] | number of binding sites nA (proteinase K (PK) [4]; T 290 K) | Stern–Volmer constant Ksv (proteinase K (PK) [4]; T 290 K) | fluorescence quenching rate constant Kq (proteinase K (PK) [4]; T 290 K) | Gibbs free energy change ∆G (proteinase K (PK) [4]; T 300 K) [kcal/mol] | number of binding sites nA (proteinase K (PK) [4]; T 300 K) | Stern–Volmer constant Ksv (proteinase K (PK) [4]; T 300 K) | fluorescence quenching rate constant Kq (proteinase K (PK) [4]; T 300 K) | Gibbs free energy change ∆G (proteinase K (PK) [4]; T 310 K) [kcal/mol] | number of binding sites nA (proteinase K (PK) [4]; T 310 K) | further results
O=c1c(O)c(-c2cc(O)c(O)c(O)c2)oc2cc(O)cc(O)c12 [MYR, Myricetin] | 24600 | 70.73 | 1.74 10^4 L·mol^−1 | 69.51 | 1.71 10^4 L·mol^−1 | 2.46 10^4 L·mol^−1 | 3.61 | 0.105 | no shift | 279.0 | -6.601 | 1.0 | 3.57 10^4 L·mol^−1 | 3.57 10^12 L·mol^−1·s^−1 | -6.03 | 0.9 | 2.46 10^4 L·mol^−1 | 2.46 10^12 L·mol^−1·s^−1 | -5.442 | 0.9 | binding distance r (proteinase K (PK) [2]): 5.11 nm; Kd (proteinase K (PK) [4]; T 290 K): 16.9 µM; Kd (proteinase K (PK) [4]; T 300 K): 40.5 µM; Stern–Volmer constant Ksv (proteinase K (PK) [4]; T 310 K): 1.90 10^4 L·mol^−1; Kd (proteinase K (PK) [4]; T 310 K): 114 µM; fluorescence quenching rate constant Kq (proteinase K (PK) [4]; T 310 K): 1.90 10^12 L·mol^−1·s^−1; enthalpy change ∆H (proteinase K (PK) [4]): -23.42 kcal/mol; fluorescence quenching process (mechanism) (proteinase K (PK) [4]): static
Myricitrin [MYT] | 20600 | 38.14 | 0.78 10^4 L·mol^−1 | 61.52 | 1.27 10^4 L·mol^−1 | 2.06 10^4 L·mol^−1 | 3.42 | 0.128 | 274.0 to 276.0 nm | 279.0 to 280.0 | -6.558 | 1.1 | 2.20 10^4 L·mol^−1 | 2.20 10^12 L·mol^−1·s^−1 | -6.018 | 1.0 | 2.06 10^4 L·mol^−1 | 2.06 10^12 L·mol^−1·s^−1 | -5.28 | 0.9 | Stern–Volmer constant Ksv (proteinase K (PK) [4]; T 310 K): 1.88 10^4 L·mol^−1; fluorescence quenching rate constant Kq (proteinase K (PK) [4]; T 310 K): 1.88 10^12 L·mol^−1·s^−1; enthalpy change ∆H (proteinase K (PK) [4]): -25.098 kcal/mol; fluorescence quenching process (mechanism) (proteinase K (PK) [4]): static
